Earlier results as cited in patent publication US8183239B2, “Substituted piperazines and piperidines as modulators of the neuropeptide Y2 receptor” (Janssen Pharmaceutica NV, priority 2005, dated 2012).

Tested on: rats
Conditions: icv administration; cited from earlier work

N=C(N)NCCC[C@H](NC(=O)CC1(CC(=O)N2CCN(C3c4ccccc4NC(=O)c4ccccc43)CC2)CCCC1)C(=O)NCCn1c(=O)n(-c2ccccc2)n(-c2ccccc2)c1=O (stereo partly shown) [BIIE0246]
ethanol self-administration: dose dependently reduced ethanol self-administration
